From patent US20150266857A1, “NOVEL 3-INDOL SUBSTITUTED DERIVATIVES, PHARMACEUTICAL COMPOSITIONS AND METHODS FOR USE” (iTeos Therapeutics, priority 2014, published 2015)

What was measured:
[1] = target: T1, human recombinant TDO2 enzyme (Homo sapiens, UniProt P48775); assay: Assay for TDO2 enzymatic activity determination; assay type: biochemical; conditions: human recombinant TDO2, L-Trp 1 mM, kynurenine absorbance at 480 nm
T1 construct: made in house
Method: To measure the TDO2 activity, the procedure described in Dolusic et al. J. Med. Chem.; 2011, 54, […] was adapted: the reaction mixture contained (final concentrations) potassium phosphate buffer (50 mM, pH 7.5), ascorbic acid (0.25 M), methylene blue (0.125 μM), catalase (40 units/mL, from bovine liver, Sigma), and human recombinant TDO2 enzyme (prepared as described in Dolusic et al. J. Med. Chem.; 2011, 54, 5320-5334; 0.9 μg) without or with the compounds of the present invention at the indicated concentrations (total volume 112.5 μL). The reaction was initiated by the addition of 37.5 μL of L-Trp (final concentration 1 mM) at room temperature. The reaction was conducted at room temperature during one hour and stopped by the addition of 30 μL of 30% (w/v) trichloroacetic acid.
To convert N-formylkynurenine into kynurenine, the reaction mixture was incubated at 65° C. for 30 min. Then 150 μL of the reaction mixture was mixed with 120 μL of 2.5% (w/v) 4-(dimethylamino)-benzaldehyde in acetic acid and incubated for 5 min at room temperature. Kynurenine concentrations were determined by measuring the absorbance at 480 nm. A standard curve was made with pure kynurenine. The TDO activity was measured as described above using ten serial concentrations of the compounds of the present invention. Data were fitted using the Prism™ software (GraphPad Software, Inc.) using standard parameters.

[2] = target: T2, human glioblastoma A172 cells, naturally expressing hTDO2 (Homo sapiens, UniProt P48775); assay: Cellular assay for TDO2 activity, A172 cells; assay type: cell-based; conditions: overnight incubation, kynurenine in supernatant
T2 construct: human glioblastoma A172 cells, naturally expressing hTDO2; endogenous in cells; host or cells: human glioblastoma A172 cells (ATCC CRL-1620)
T2 sequence (P48775 whole entry): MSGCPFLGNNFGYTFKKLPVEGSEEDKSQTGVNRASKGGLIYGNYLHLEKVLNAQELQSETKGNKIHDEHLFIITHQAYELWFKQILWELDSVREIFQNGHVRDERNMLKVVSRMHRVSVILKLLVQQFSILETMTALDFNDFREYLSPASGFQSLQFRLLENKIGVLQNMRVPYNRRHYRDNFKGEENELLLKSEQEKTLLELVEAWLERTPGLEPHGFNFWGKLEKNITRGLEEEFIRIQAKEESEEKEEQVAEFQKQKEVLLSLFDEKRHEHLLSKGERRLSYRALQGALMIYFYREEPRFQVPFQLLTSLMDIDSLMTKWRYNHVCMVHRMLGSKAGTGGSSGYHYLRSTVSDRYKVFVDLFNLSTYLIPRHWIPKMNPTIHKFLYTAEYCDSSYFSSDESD
Method: The compounds of formula I inhibit the activity of human TDO2 in cells that constitutively express TDO2, such as A172 cells. A172 is a cell line derived from human brain glioblastoma cells. The cells are available from the American Type Culture Collection (ATCC®) as CRL-1620™
The assay (adapted from Pilotte L et al., Proc Natl Acad Sci USA, 2012, 109(7), 2497-502) was performed in 96-well flat bottom plates seeded with human glioblastoma A172 cells, naturally expressing hTDO2 (prepared as described in Tilman et al., Mol Cancer, 2007, 17(6), 80), at a concentration of 1.25×10^4 cells/well in a final volume of 200 μL. To determine TDO, the cells were incubated overnight at 37° C. at 5% CO2 in IMDM (Invitrogen) supplemented with 2% FBS and 2% penicillin/streptomycin in the presence of the compounds of the present invention, at different concentrations.
(§1) The plates were then centrifuged 5 min at 1000 rpm, and 100 μL of the supernatant were collected in a conical plate, 30 uL of TCA 30% were added and a further centrifugated at 3000×g for 10 minutes. 100 μL of the supernatant were collected in a flat bottomed plate and 100 μL of 2% (w/v) 4-(dimethylamino)-benzaldehyde in acetic acid and incubated for 5 min at room temperature. Kynurenine concentrations were determined by measuring the absorbance at 480 nm. A standard curve was made with pure kynurenine. The TDO activity was measured as described above using ten serial concentrations of the compounds of the present invention. Data were fitted using the Prism™ software (GraphPad Software, Inc.) using standard parameters.

[3] = target: T3, murine mastocytoma P815 cells overexpressing hTDO2 (Homo sapiens, UniProt P48775); assay: Cellular assay for TDO2 activity, hTDO2-overexpressing P815 cells; assay type: cell-based; conditions: P815 cells overexpressing hTDO2, overnight incubation, kynurenine in supernatant
T3 construct: expressed in transfected cells; host or cells: murine mastocytoma P815 cells
T3 sequence (P48775 whole entry): as above
Method: The assay (adapted from Pilotte L et al., Proc Natl Acad Sci USA, 2012, 109(7), 2497-502) was performed in 96-well flat bottom plates seeded with murine mastocytoma P815 cells overexpressing hTDO2 (prepared as described in Pilotte et al., PNAS, 2012, 109(7), 2497-2502), at a concentration of 5×10^4 cells/well in a final volume of 200 μL. To determine TDO or IDO activity, the cells were incubated overnight at 37° C. at 5% CO2 in IMDM (Invitrogen) supplemented with 2% FBS and 2% penicillin/streptomycin in the presence of the compounds of the present invention, at different concentrations. The cells may be obtained from the American Type Cuylture Collecion [ATCC® TIB-64™ or commercially, e.g., from Sigma-Aldrich or Life Technologies.]
as §1

T1 sequence (P48775 whole entry): as above

Compound | IC50 [1] [nM] | IC50 [2] [nM] | IC50 [3] [nM]
NC(=O)Cn1ncc2cc(-c3c[nH]c4cc(F)ccc34)ccc21 [Compound 9, 2-(5-(6-fluoro-1H-indol-3-yl)-1H-indazol-1-yl)acetamide] | 645 | 147 | 
NC(=O)CCn1ncc2cc(-c3c[nH]c4cc(F)ccc34)ccc21 [Compound 12, 3-(5-(6-fluoro-1H-indol-3-yl)-1H-indazol-1-yl)propanamide] | 709 | 517 | 
NC(=O)Cn1cc2cc(-c3c[nH]c4cc(F)ccc34)ccc2n1 [Compound 20, 2-(5-(6-fluoro-1H-indol-3-yl)-2H-indazol-2-yl)acetamide] | 421 | 169 | 
CC(=O)N1CCC(Cn2cc3cc(-c4c[nH]c5cc(F)ccc45)ccc3n2)CC1 [Compound 21, 1-(4-((5-(6-fluoro-1H-indol-3-yl)-2H-indazol-2-yl)methyl)piperidin-1-yl)ethanone] | 2670 |  | 
NC(=O)CCn1cc2cc(-c3c[nH]c4cc(F)ccc34)ccc2n1 [Compound 22, 3-(5-(6-fluoro-1H-indol-3-yl)-2H-indazol-2-yl)propanamide] | 539 | 176 | 
Fc1ccc2c(-c3ccc4nn(C5CCNCC5)cc4c3)c[nH]c2c1 [Compound 23, 5-(6-fluoro-1H-indol-3-yl)-2-(piperidin-4-yl)-2H-indazole] | 322 |  | 
CC(=O)N1CCC(n2cc3cc(-c4c[nH]c5cc(F)ccc45)ccc3n2)CC1 [Compound 24, 1-(4-(5-(6-fluoro-1H-indol-3-yl)-2H-indazol-2-yl)piperidin-1-yl)ethanone] | 924 |  | 
Fc1ccc2c(-c3ccc4[nH]cnc4c3)c[nH]c2c1 [Compound 25, 5-(6-fluoro-1H-indol-3-yl)-1H-benzo[d]imidazole] | 188 |  | 
NCc1nc2ccc(-c3c[nH]c4cc(F)ccc34)cc2[nH]1 [Compound 27, (6-(6-fluoro-1H-indol-3-yl)-1H-benzo[d]imidazol-2-yl)methanamine] |  |  | 678
CN(C)Cc1nc2ccc(-c3c[nH]c4cc(F)ccc34)cc2[nH]1 [Compound 28, 1-(6-(6-fluoro-1H-indol-3-yl)-1H-benzo[d]imidazol-2-yl)-N,N-dimethylmethanamine] |  |  | 1450
CC(=O)NCc1nc2ccc(-c3c[nH]c4cc(F)ccc34)cc2[nH]1 [Compound 30, N-((6-(6-fluoro-1H-indol-3-yl)-1H-benzo[d]imidazol-2-yl)methyl)acetamide] |  |  | 896
NCC(=O)NCc1nc2ccc(-c3c[nH]c4cc(F)ccc34)cc2[nH]1 [Compound 31, 2-amino-N-((6-(6-fluoro-1H-indol-3-yl)-1H-benzo[d]imidazol-2-yl)methyl)acetamide] |  |  | 2300
CS(=O)(=O)NCc1nc2ccc(-c3c[nH]c4cc(F)ccc34)cc2[nH]1 [Compound 32, N-((6-(6-fluoro-1H-indol-3-yl)-1H-benzo[d]imidazol-2-yl)methyl)methanesulfonamide] |  |  | 460
CN1CCN(Cc2nc3ccc(-c4c[nH]c5cc(F)ccc45)cc3[nH]2)CC1 [Compound 33, 6-(6-fluoro-1H-indol-3-yl)-2-((4-methylpiperazin-1-yl)methyl)-1H-benzo[d]imidazole] |  |  | 635
NC(=O)CCc1nc2cc(-c3c[nH]c4cc(F)ccc34)ccc2[nH]1 [Compound 46, 3-(5-(6-fluoro-1H-indol-3-yl)-1H-benzo[d]imidazol-2-yl)propanamide] | 1330 |  | 
CS(=O)(=O)N1CCC(c2nc3ccc(-c4c[nH]c5cc(F)ccc45)cc3o2)CC1 [Compound 96, 6-(6-fluoro-1H-indol-3-yl)-2-(1-(methylsulfonyl)piperidin-4-yl)benzo[d]oxazole] | 2390 | 589 | 
O=C1Cc2cc(-c3c[nH]c4cc(F)ccc34)ccc2N1 [Compound 97, 5-(6-fluoro-1H-indol-3-yl)indolin-2-one] | 716 | 284 | 
Nc1nc2ccc(-c3c[nH]c4cc(F)ccc34)cc2o1 [Compound 98, 6-(6-fluoro-1H-indol-3-yl)benzo[d]oxazol-2-amine] | 489 | 293 | 
CN(C)CCS(=O)(=O)NCc1nc2ccc(-c3c[nH]c4cc(F)ccc34)cc2o1 [Compound 100, 2-(dimethylamino)-N-((6-(6-fluoro-1H-indol-3-yl)benzo[d]oxazol-2-yl)methyl)ethanesulfonamide] | 1460 | 345 | 
CS(=O)(=O)CCc1nc2ccc(-c3c[nH]c4cc(F)ccc34)cc2o1 [Compound 101, 6-(6-fluoro-1H-indol-3-yl)-2-(2-(methylsulfonyl)ethyl)benzo[d]oxazole] | 1380 | 153 | 
NC(=O)NCc1nc2ccc(-c3c[nH]c4cc(F)ccc34)cc2o1 [Compound 102, 1-((6-(6-fluoro-1H-indol-3-yl)benzo[d]oxazol-2-yl)methyl)urea] | 835 | 261 | 
CN1CCN(CCc2nc3ccc(-c4c[nH]c5cc(F)ccc45)cc3o2)CC1 [Compound 105, 6-(6-fluoro-1H-indol-3-yl)-2-(2-(4-methylpiperazin-1-yl)ethyl)benzo[d]oxazole] | 913 | 223 | 
O=S(=O)(CCO)NCc1nc2ccc(-c3c[nH]c4cc(F)ccc34)cc2o1 [Compound 106, N-((6-(6-fluoro-1H-indol-3-yl)benzo[d]oxazol-2-yl)methyl)-2-hydroxyethanesulfonamide] | 814 | 326 | 
O=S(=O)(CCN1CCOCC1)NCc1nc2ccc(-c3c[nH]c4cc(F)ccc34)cc2o1 [Compound 107, N-((6-(6-fluoro-1H-indol-3-yl)benzo[d]oxazol-2-yl)methyl)-2-morpholinoethanesulfonamide] | 2800 | 677 | 
CN1CCN(CCS(=O)(=O)NCc2nc3ccc(-c4c[nH]c5cc(F)ccc45)cc3o2)CC1 [Compound 122, N-((6-(6-fluoro-1H-indol-3-yl)benzo[d]oxazol-2-yl)methyl)-2-(4-methylpiperazin-1-yl)ethanesulfonamide] | 2090 | 344 | 
O=S(=O)(CCN1CCNCC1)NCc1nc2ccc(-c3c[nH]c4cc(F)ccc34)cc2o1 [Compound 123, N-((6-(6-fluoro-1H-indol-3-yl)benzo[d]oxazol-2-yl)methyl)-2-(piperazin-1-yl)ethanesulfonamide] | 1360 | 498 | 
O=S(=O)(CCN1CCCC1)NCc1nc2ccc(-c3c[nH]c4cc(F)ccc34)cc2o1 [Compound 124, N-((6-(6-fluoro-1H-indol-3-yl)benzo[d]oxazol-2-yl)methyl)-2-(pyrrolidin-1-yl)ethanesulfonamide] | 1210 | 334 | 
CS(=O)(=O)NCc1nc2ccc(-c3c[nH]c4ccc(F)cc34)cc2o1 [Compound 128, N-((6-(5-fluoro-1H-indol-3-yl)benzo[d]oxazol-2-yl)methyl)methanesulfonamide] | 6070 | 540 | 
O=C1NS(=O)(=O)c2ccc(-c3c[nH]c4cc(F)ccc34)cc21 [Compound 130, 5-(6-fluoro-1H-indol-3-yl)benzo[d]isothiazol-3(2H)-one 1,1-dioxide] | 2420 | 83 | 
